The subject of assay [1] is organotypic hippocampal neuronal slice cultures (OHSC). The assay can be described thus: OGD, propidium iodide staining of OHSC. In kind it is cell-based, rat. An excerpt: In the present study it was investigated the effect of the FGL peptide on synaptic plasticity, neuronal function and vulnerability following oxygen and glucose deprivation (OGD) in organotypic hippocampal neuronal slice cultures (OHSC) from 7-day-old Wistar rats according to method of Stoppini et al. (1991) Neurosci Methods. 37:173-82 and primary cultures of dissociated hippocampal neurons from 1-day-old rats according to method of Maar et al. (1997) J Neurosci Res. 47:163-72. Primary cell cultures were maintained for 11-12 days and OHSC for 12-14 days prior to adding FGLd.
The primary cell cultures and OHSC were exposed to OGD for 10 and 20 minutes. Following OGD, the cultures were again supplied with oxygen and glucose and analysed at 1, 4 or 24 hour time point after introduction of OGD exposure. FGLd (or the control peptide FGLc) was added 24 hr before, immediately, or 1 hr or 24 hr after OGD. When administered prior to OGD, FGLd was removed from the medium when introducing OGD. In some cases, the slice cultures were treated with FGLd only at 4 hr after OGD. In addition, the FGFR inhibitor, SU5402 (25 μM), was added together with FGLd in some of the set-ups.
In hippocampal neuronal cultures, FM 1-43 staining was used to evaluate pre-synaptic function (described above). Cell viability in both primary cell cultures and OHSC was measured using the […] [3-(4,5-dimethylthiazol-2-yl)-2,5-diphenyltetrazolium bromide] assay according to Malich et al, (1997) Toxicology. 124:179-92. In, addition, cell viability in OHSC was measured using propidium iodide (PI) staining according to Laake et al. (1999) Brain Res Brain Res Protoc. 4:173-84.

Assay [2] has as its system rats treated with (25-35) β-amyloid fragment. The assay can be described thus: Light-dark Discriminating Y-maze with positive food reinforcement. Type of assay: in vivo, rat. The procedure: The present study employed a rat model, in which neurotoxicity and cognitive impairment were induced by the (25-35) β-amyloid peptide fragment (see Maurice T., et al. (1996) (Brain Res. 706:181-93) and Delobette S., et al. (1997) Eur J Pharmacol. 319:1-4). Short-term memory deficit induced by the (25-35) β-amyloid peptide fragment in rat is of special importance to study, as it resembles one of the clinical manifestations of Alzheimer's disease. Short-term memory deficit in rats was evaluated using three different behavioural tests: the Social Recognition (Kogan et al, (2000) Hippocampus 10:47-56), Open Field (Cerbone and Sadile, (1994) Neurosci Biobehav Rev. 18:497-518; Vianna et al, (2000) Learn Mem. 7:333-40) and Y-maze (Clayton & Williams, (2000) Neurobiol Learn Mem. 74:135-45) tests. […]
Behaviour of animals was evaluated using the Social Recognition test, the Open Field test or the Light-dark Discriminating γ-maze. On day 28-30 or day 51 after i.c.v. administration of the (25-35) β-amyloid fragment, the animals were sacrificed, and in selected studies, the brain tissue was collected, histological sections were immunostained with A-β specific antibodies and the amyloid-burden was calculated as a percentage of the A-βpositive area. In addition, the number of neurons in selected areas of brain-sections was calculated using a stereological approach.

In assay [3] the test system is Erk1/2. The assay can be described thus: PACE assay, phosphorylation of Erk1/2 in CGN. In kind it is cell-based, rat. As for the experimental part:
The total number of neurons was estimated using crystal violet staining. Results from at least three independent experiments are expressed as percentage ±SEM with untreated cultures set at 100%. *p<0.05 and **p<0.01 when compared to the controls.
Detection of phosphorylated Erk1/2 and Akt relative to the total number of CGN is carried out according to Versteeg et al. (2000) FEBS Lett. 465:69-73. For the experiments CGN were plated at a density of 290,000 cells/cm^2 in poly-L-lysine coated 96-well microtiter plates. […] 24 hours after plating, Ara-C was added to the cultures as described above. After 72 hours of incubation, half of the medium was replaced with Neurobasal-A medium containing the peptide to be tested. For the Erk1/2 phosphorylation assay, the cultures were further incubated for 0-90 minutes, centrifuged at 70 g for 8 minutes, fixed with 4% (v/v) formaldehyde and immunostained using primary phospho-p42-44 rabbit antibodies and peroxidase-conjugated anti-rabbit secondary antibodies. For the detection of phosphorylated Akt, the cultures were further incubated for 10 or 30 minutes, centrifuged at 70 g for 8 minutes, fixed with 4% (v/v) formaldehyde and immunostained using polyclonal antibodies against Akt phosphorylated at Ser473 and peroxidase-conjugated secondary antibodies. […]

The subject of assay [4] is hippocampal neurons. Briefly: Neurite outgrowth, hippocampal neurons. In kind it is cell-based, rat. The following applies: 24 h. The procedure: The cultures were subsequently immunostained for tyrosine hydroxylase. Hippocampal neurons and CGN were plated at a density of 10,000 cells/cm^2 on 8-well permanox chamber slides and incubated for 24 hours in the presence of various concentrations of FGLd. Subsequently the neurons were immunostained for GAP-43. Results from at least five independent experiments for each neuronal culture are shown as percentage ±SEM with the untreated controls set at 100%. *p<0.05, **p<0.01, ***p<0.001 when compared to the controls.
Results from at least four independent experiments are shown as percentage SEM with untreated controls set at 100%. **p<0.01 when compared to the controls.
Peptide solutions without or with inhibitors of various signal transduction pathways were added to a total volume of 300 μl/cm^2, and the slides were incubated at 37° C. After 24 hours, the neurons were fixed with 4% (v/v) formaldehyde for 20 minutes and thereafter immunostained using primary rabbit antibodies against GAP-43 and Alexa Fluor secondary goat anti-rabbit antibodies. Images of at least 200 neurons for each group in each individual experiment were obtained systematically by using computer assisted fluorescence microscopy as previously described (Rønn et al., 2000 op. cit.). Briefly, a Nikon Diaphot inverted microscope with a Nikon Plan 20× objective (Nikon, Tokyo, Japan) coupled to a video camera (Grundig Electronics, Germany) was used for recordings. The same software package as described above for the dopaminergic neurite outgrowth assay was used to process the recorded images.

The results in this text go back to patent publication US20090105149A1, “Compounds comprising lpa” (ENKAM PHARMACEUTICALS A/S, priority 2003, published 2009).

For the substance “FGLd: MAP-type dendrimer of FGL; dendrimeric tetramer of the FGL peptide (EVYVVAENQQGKSKA)”, the “PI staining (cell damage) after 10 minutes of OGD” value in assay [1] (slices pre-treated for 24 hours) was “almost completely abolished”; in assay [1] (treated immediately after OGD), “Cell damage was also avoided”; in assay [1] (treatment delayed until 4 hours after OGD) it was “not if FGLd treatment was delayed until 4 hours after OGD”. The number of errors in assay [2] (day 25, last day of training, sub-occipital, β-amyloid control 3.8) was 1.7; in assay [2] (training days 21-24, vs β-amyloid fragment-treated control), “no significant differences”. In addition, the “phosphorylation of Erk1/2” value in assay [3] (5 μg/ml) is “unable to induce phosphorylation of Erk1/2”; in assay [3] (10 μg/ml, from 10 to at least 90 minutes, control cultures = 100%) it was 115-120%. In addition, the “neurite length, hippocampal neurons, plateau-like level” value in assay [4] (0.04 up to 20 μg/ml, untreated control = 100%) is listed as “approximately 150%”. The “Effect on Neurite Length (Percent Increase vs. Control)” value came to 65% in assay [4] (HN E19, 3 μg/mL); 51% in assay [4] (HN E19, 9 μg/mL); 69% in assay [4] (HN E19, 27 μg/mL); 38% in assay [4] (HN Newborn, 0.04 μg/mL); 45% in assay [4] (HN Newborn, 5 μg/mL).
